The values below come from ChEMBL document CHEMBL1795319, “Design, synthesis and antifungal evaluation of 1-(2-(2,4-difluorophenyl)-2-hydroxy-3-(1H-1,2,4-triazol-1-yl)propyl)-1H-1,2,4-triazol-5(4H)-one” (2011).

What all share (format): functional
Assay [1] relates to Candida albicans. The assay can be described thus: Antifungal activity against Candida albicans SC5314 after 24 hrs by micro-broth dilution method. The note with it: SC5314, 24 h.
Assay [2] deals with Candida albicans. Nature of the assay: Antifungal activity against Candida albicans Y0109 after 24 hrs by micro-broth dilution method. The note with it: Y0109, 24 h. (In general: Broth dilution looks for growth in wells or tubes with falling amounts of substance.)
For another assay, the system named is Candida tropicalis. The assay can be described thus: Antifungal activity against Candida tropicalis by micro-broth dilution method.
For another assay, the system named is Candida parapsilosis. Nature of the assay: Antifungal activity against Candida parapsilosis by micro-broth dilution method. The note with it: Lodderomyces parapsilosis.
The next assay deals with Kluyveromyces marxianus. Nature of the assay: Antifungal activity against Candida kefyr by micro-broth dilution method.
Another assay deals with Cryptococcus neoformans. The assay can be described thus: Antifungal activity against Cryptococcus neoformans BLS108 after 72 hrs by micro-broth dilution method. Particulars: BLS108, 72 h.
Another assay concerns Trichophyton rubrum. Nature of the assay: Antifungal activity against Trichophyton rubrum by micro-broth dilution method.
The next assay has as its system Aspergillus fumigatus. Nature of the assay: Antifungal activity against Aspergillus fumigatus by broth microdilution method.

≈ marks a conversion by molar mass, not a printed value.

By MIC80 is commonly meant the lowest concentration that inhibits either 80% of growth or 80% of the strains tested, depending on the study. Higher therefore signals lower susceptibility. As to `O=c1n(-c2ccc([N+](=O)[O-])cc2)cnn1CC(O)(Cn1cncn1)c1ccc(F)cc1F` (racemic), the MIC80 came to 1 µg/mL (≈ 2.26 µM) against Candida albicans [1]; 1 µg/mL (≈ 2.26 µM) against Candida albicans [2]; 0.25 µg/mL (≈ 0.564 µM) with Candida tropicalis; 16 µg/mL (≈ 36.1 µM) in the assay with Candida parapsilosis; 0.25 µg/mL (≈ 0.564 µM) against Kluyveromyces marxianus; 64 µg/mL (≈ 144 µM) in the assay on Cryptococcus neoformans. For the same molecule, the MIC80 against Trichophyton rubrum is 16 µg/mL (≈ 36.1 µM); with Aspergillus fumigatus, above 64 µg/mL.
Consider `CCCCCCC(=O)Nc1ccc(-n2cnn(CC(O)(Cn3cncn3)c3ccc(F)cc3F)c2=O)cc1` (racemic), for which the MIC80 against Candida albicans [1] worked out at 0.0039 µg/mL (≈ 0.00742 µM); in the assay on Candida albicans [2] it was 0.0625 µg/mL (≈ 0.119 µM); with Candida tropicalis it was 64 µg/mL (≈ 122 µM); with Candida parapsilosis, 1 µg/mL (≈ 1.9 µM); against Kluyveromyces marxianus it was 1 µg/mL (≈ 1.9 µM); against Cryptococcus neoformans, 0.0625 µg/mL (≈ 0.119 µM). Besides, the MIC80 is 64 µg/mL (≈ 122 µM) against Trichophyton rubrum and above 64 µg/mL against Aspergillus fumigatus.
Turning to `N#CCC(=O)Nc1ccc(-n2cnn(CC(O)(Cn3cncn3)c3ccc(F)cc3F)c2=O)cc1` (racemic), the MIC80 with Candida albicans [1] is 0.25 µg/mL (≈ 0.52 µM); in the assay on Candida albicans [2] it was 1 µg/mL (≈ 2.08 µM); against Candida tropicalis, 1 µg/mL (≈ 2.08 µM); against Candida parapsilosis, 1 µg/mL (≈ 2.08 µM); against Kluyveromyces marxianus, above 64 µg/mL; with Cryptococcus neoformans, above 64 µg/mL. In addition, the figures for the MIC80 in the assay on Trichophyton rubrum and against Aspergillus fumigatus were 16 µg/mL (≈ 33.3 µM) and above 64 µg/mL, respectively.
For the molecule `CCC(=O)Nc1ccc(-n2cnn(CC(O)(Cn3cncn3)c3ccc(F)cc3F)c2=O)cc1` (racemic), the MIC80 against Candida albicans [1] was 1 µg/mL (≈ 2.13 µM); against Candida albicans [2] it was 4 µg/mL (≈ 8.52 µM); against Candida tropicalis, 16 µg/mL (≈ 34.1 µM); against Candida parapsilosis, 4 µg/mL (≈ 8.52 µM); against Kluyveromyces marxianus, 64 µg/mL (≈ 136 µM); in the assay on Cryptococcus neoformans it was above 64 µg/mL. In addition, the MIC80 against Trichophyton rubrum and with Aspergillus fumigatus was above 64 µg/mL in each case.
As to `CCCCCCCC(=O)Nc1ccc(-n2cnn(CC(O)(Cn3cncn3)c3ccc(F)cc3F)c2=O)cc1` (racemic), the MIC80 against Candida albicans [1] is 4 µg/mL (≈ 7.41 µM); against Candida albicans [2] it was 16 µg/mL (≈ 29.7 µM); in the assay on Candida tropicalis, 64 µg/mL (≈ 119 µM); in the assay with Candida parapsilosis, 64 µg/mL (≈ 119 µM); in the assay with Kluyveromyces marxianus, above 64 µg/mL; against Cryptococcus neoformans, above 64 µg/mL. The MIC80 in the assay with Trichophyton rubrum and against Aspergillus fumigatus was above 64 µg/mL in each case.
`O=C(Nc1ccc(-n2cnn(CC(O)(Cn3cncn3)c3ccc(F)cc3F)c2=O)cc1)c1ccco1` (racemic): the MIC80 was 0.25 µg/mL (≈ 0.493 µM) against Candida albicans [1]; 0.25 µg/mL (≈ 0.493 µM) in the assay on Candida albicans [2]; 1 µg/mL (≈ 1.97 µM) against Candida tropicalis; 0.0625 µg/mL (≈ 0.123 µM) in the assay on Candida parapsilosis; 4 µg/mL (≈ 7.88 µM) in the assay with Kluyveromyces marxianus; 16 µg/mL (≈ 31.5 µM) in the assay with Cryptococcus neoformans. For the same molecule, the MIC80 against Trichophyton rubrum and in the assay with Aspergillus fumigatus was above 64 µg/mL throughout.
`O=C(Nc1ccc(-n2cnn(CC(O)(Cn3cncn3)c3ccc(F)cc3F)c2=O)cc1)c1cccs1` (racemic): the MIC80 with Candida albicans [1] is 0.25 µg/mL (≈ 0.478 µM); against Candida albicans [2], 1 µg/mL (≈ 1.91 µM); in the assay on Candida tropicalis, 16 µg/mL (≈ 30.6 µM); in the assay with Candida parapsilosis, 4 µg/mL (≈ 7.64 µM); against Kluyveromyces marxianus, above 64 µg/mL; in the assay on Cryptococcus neoformans, above 64 µg/mL. Also, the MIC80 with Trichophyton rubrum and in the assay on Aspergillus fumigatus was above 64 µg/mL in each case.
Take `O=C(Nc1ccc(-n2cnn(CC(O)(Cn3cncn3)c3ccc(F)cc3F)c2=O)cc1)C1CC1` (racemic): the MIC80 was 0.0625 µg/mL (≈ 0.13 µM) against Candida albicans [1]; 0.0625 µg/mL (≈ 0.13 µM) in the assay on Candida albicans [2]; 1 µg/mL (≈ 2.08 µM) with Candida tropicalis; 0.25 µg/mL (≈ 0.519 µM) against Candida parapsilosis; above 64 µg/mL in the assay with Kluyveromyces marxianus; above 64 µg/mL in the assay with Cryptococcus neoformans. Besides, the MIC80 against Trichophyton rubrum and against Aspergillus fumigatus was above 64 µg/mL in each case.
Turning to `O=c1n(-c2ccccc2Cl)cnn1CC(O)(Cn1cncn1)c1ccc(F)cc1F` (racemic), the MIC80 with Candida albicans [1] came to 1 µg/mL (≈ 2.31 µM); in the assay on Candida albicans [2] it was 1 µg/mL (≈ 2.31 µM); with Candida tropicalis, 1 µg/mL (≈ 2.31 µM); with Candida parapsilosis, 16 µg/mL (≈ 37 µM); in the assay with Kluyveromyces marxianus, 0.25 µg/mL (≈ 0.578 µM); against Cryptococcus neoformans it was 64 µg/mL (≈ 148 µM). Besides, the values for the MIC80 in the assay on Trichophyton rubrum and with Aspergillus fumigatus were 64 µg/mL (≈ 148 µM) and above 64 µg/mL, respectively.
Consider `O=C(Nc1ccc(-n2cnn(CC(O)(Cn3cncn3)c3ccc(F)cc3F)c2=O)cc1)C1CCCCC1` (racemic), for which the MIC80 against Candida albicans [1], with Candida albicans [2], against Candida tropicalis, in the assay on Candida parapsilosis, with Kluyveromyces marxianus and against Cryptococcus neoformans was above 64 µg/mL throughout. The MIC80 is 16 µg/mL (≈ 30.6 µM) against Trichophyton rubrum and above 64 µg/mL in the assay with Aspergillus fumigatus.
Take `CCCCCC(=O)Nc1ccc(-n2cnn(CC(O)(Cn3cncn3)c3ccc(F)cc3F)c2=O)cc1` (racemic): the MIC80 is 0.00097 µg/mL (≈ 0.0019 µM) against Candida albicans [1]; 0.00024 µg/mL (≈ 0.000469 µM) with Candida albicans [2]; 0.00097 µg/mL (≈ 0.0019 µM) against Candida tropicalis; 0.00024 µg/mL (≈ 0.000469 µM) against Candida parapsilosis; 4 µg/mL (≈ 7.82 µM) against Kluyveromyces marxianus; 0.0625 µg/mL (≈ 0.122 µM) with Cryptococcus neoformans. For the same molecule, the values for the MIC80 with Trichophyton rubrum and in the assay on Aspergillus fumigatus were 64 µg/mL (≈ 125 µM) and above 64 µg/mL, respectively.
For the molecule `N#Cc1cccc(-n2cnn(CC(O)(Cn3cncn3)c3ccc(F)cc3F)c2=O)c1` (racemic), the MIC80 was found to be 0.00024 µg/mL (≈ 0.000567 µM) with Candida albicans [1]; 0.00024 µg/mL (≈ 0.000567 µM) in the assay on Candida albicans [2]; 0.00024 µg/mL (≈ 0.000567 µM) against Candida tropicalis; 0.00024 µg/mL (≈ 0.000567 µM) in the assay with Candida parapsilosis; 0.00024 µg/mL (≈ 0.000567 µM) in the assay on Kluyveromyces marxianus; 0.25 µg/mL (≈ 0.59 µM) in the assay on Cryptococcus neoformans. For the same molecule, the results for the MIC80 in the assay with Trichophyton rubrum and in the assay on Aspergillus fumigatus were 4 µg/mL (≈ 9.45 µM) and above 64 µg/mL, respectively.
As to `O=c1n(-c2nc(-c3ccc(Cl)cc3Cl)cs2)cnn1CC(O)(Cn1cncn1)c1ccc(F)cc1F` (racemic), the MIC80 was found to be 16 µg/mL (≈ 29.1 µM) in the assay with Candida albicans [1]; 16 µg/mL (≈ 29.1 µM) in the assay with Candida albicans [2]; 16 µg/mL (≈ 29.1 µM) in the assay with Candida tropicalis; 64 µg/mL (≈ 116 µM) against Candida parapsilosis; 4 µg/mL (≈ 7.27 µM) in the assay with Kluyveromyces marxianus; 64 µg/mL (≈ 116 µM) against Cryptococcus neoformans. Moreover, the MIC80 against Trichophyton rubrum was 64 µg/mL (≈ 116 µM); in the assay with Aspergillus fumigatus it was above 64 µg/mL.
For `N#Cc1ccc(-n2cnn(CC(O)(Cn3cncn3)c3ccc(F)cc3F)c2=O)cc1` (racemic), the MIC80 in the assay on Candida albicans [1] is 1 µg/mL (≈ 2.36 µM); in the assay with Candida albicans [2], 1 µg/mL (≈ 2.36 µM); against Candida tropicalis, 4 µg/mL (≈ 9.45 µM); with Candida parapsilosis, 1 µg/mL (≈ 2.36 µM); against Kluyveromyces marxianus, 16 µg/mL (≈ 37.8 µM); in the assay on Cryptococcus neoformans it was above 64 µg/mL. Also, the MIC80 is 64 µg/mL (≈ 151 µM) against Trichophyton rubrum and above 64 µg/mL against Aspergillus fumigatus.
Consider `CCCC(=O)Nc1ccc(-n2cnn(CC(O)(Cn3cncn3)c3ccc(F)cc3F)c2=O)cc1` (racemic), for which the MIC80 with Candida albicans [1] is 4 µg/mL (≈ 8.27 µM); against Candida albicans [2] it was 4 µg/mL (≈ 8.27 µM); against Candida tropicalis it was 4 µg/mL (≈ 8.27 µM); in the assay on Candida parapsilosis, 4 µg/mL (≈ 8.27 µM); against Kluyveromyces marxianus, 16 µg/mL (≈ 33.1 µM); against Cryptococcus neoformans, above 64 µg/mL. The MIC80 in the assay with Trichophyton rubrum and with Aspergillus fumigatus was above 64 µg/mL each time.
Consider `O=C(Nc1ccc(-n2cnn(CC(O)(Cn3cncn3)c3ccc(F)cc3F)c2=O)cc1)c1cccnc1` (racemic), for which the MIC80 is 1 µg/mL (≈ 1.93 µM) against Candida albicans [1]; 1 µg/mL (≈ 1.93 µM) in the assay with Candida albicans [2]; 4 µg/mL (≈ 7.71 µM) in the assay on Candida tropicalis; 1 µg/mL (≈ 1.93 µM) in the assay on Candida parapsilosis; 16 µg/mL (≈ 30.9 µM) in the assay on Kluyveromyces marxianus; 64 µg/mL (≈ 123 µM) against Cryptococcus neoformans. The MIC80 is 64 µg/mL (≈ 123 µM) with Trichophyton rubrum and above 64 µg/mL in the assay on Aspergillus fumigatus.
